Test results from US20220056037A1 (SPV THERAPEUTICS INC., priority 2018, published 2022).
Where two headings read alike, the source gives them in different places.

Experiments:
Assay in all cases: Inhibition assay, microfluidic LabChip (Nanosyn)
Assay type in all cases: biochemical
CDK2-CYCLINA = molecular target: T1, CDK2-CYCLINA (Homo sapiens, UniProt P24941);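 further: values are IC50 from a concentration-response series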
T1 construct: purchased Millipore
Procedure: (§1) The reaction was terminated by the addition of EDTA. The plates were analyzed using a Caliper LabChip 3000.
(§2) Additional inhibition assays were performed as described above.

CDK4-CYCLIND1 = molecular target: T2, CDK4-CYCLIND1 (Homo sapiens, UniProt P11802)
T2 construct: purchased Invitrogen
T2 sequence (P11802 whole entry): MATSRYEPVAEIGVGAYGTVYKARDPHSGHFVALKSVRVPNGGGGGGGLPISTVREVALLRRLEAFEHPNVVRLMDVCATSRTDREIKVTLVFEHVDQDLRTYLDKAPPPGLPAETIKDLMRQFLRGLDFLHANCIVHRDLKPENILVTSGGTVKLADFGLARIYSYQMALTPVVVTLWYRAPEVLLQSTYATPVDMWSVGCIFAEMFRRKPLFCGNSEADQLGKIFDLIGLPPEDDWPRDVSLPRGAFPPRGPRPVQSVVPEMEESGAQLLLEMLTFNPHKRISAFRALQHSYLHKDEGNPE
T2 sequence (P24385 whole entry partner): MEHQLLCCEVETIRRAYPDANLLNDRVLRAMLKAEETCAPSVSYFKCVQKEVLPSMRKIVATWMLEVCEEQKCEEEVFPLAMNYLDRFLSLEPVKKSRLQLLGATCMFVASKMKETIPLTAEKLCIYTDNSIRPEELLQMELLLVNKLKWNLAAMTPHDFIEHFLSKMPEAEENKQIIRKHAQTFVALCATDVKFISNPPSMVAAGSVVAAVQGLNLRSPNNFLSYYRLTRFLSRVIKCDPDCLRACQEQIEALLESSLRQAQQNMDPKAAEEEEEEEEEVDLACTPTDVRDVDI
Procedure: as §1, §2

CDK6-CYCLIND3 = molecular target: T3, CDK6-CYCLIND3 (Homo sapiens, UniProt Q00534)
T3 construct: purchased Carna
T3 sequence (Q00534 whole entry): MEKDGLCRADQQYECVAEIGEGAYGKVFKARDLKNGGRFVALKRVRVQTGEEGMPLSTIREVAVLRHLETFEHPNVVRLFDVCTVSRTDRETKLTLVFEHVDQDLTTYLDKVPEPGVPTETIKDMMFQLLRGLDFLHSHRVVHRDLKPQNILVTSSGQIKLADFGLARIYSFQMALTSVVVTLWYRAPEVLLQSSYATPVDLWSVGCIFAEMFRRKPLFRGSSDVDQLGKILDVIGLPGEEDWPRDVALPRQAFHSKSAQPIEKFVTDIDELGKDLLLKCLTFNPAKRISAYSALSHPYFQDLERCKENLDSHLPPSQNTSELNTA
T3 sequence (P30281 whole entry partner): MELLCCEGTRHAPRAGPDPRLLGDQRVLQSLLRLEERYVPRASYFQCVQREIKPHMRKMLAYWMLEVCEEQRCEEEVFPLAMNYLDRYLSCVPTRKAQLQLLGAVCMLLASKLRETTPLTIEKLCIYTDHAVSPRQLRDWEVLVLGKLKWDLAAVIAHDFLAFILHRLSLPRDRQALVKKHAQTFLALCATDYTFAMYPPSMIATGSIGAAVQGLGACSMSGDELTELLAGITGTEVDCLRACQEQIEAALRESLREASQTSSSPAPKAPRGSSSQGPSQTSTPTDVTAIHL
Procedure: as §1, §2

CDK7 CyclinH = CDK7 CyclinH (Homo sapiens, UniProt P50613);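 further: values are IC50 from a concentration-response series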
Sequence of CDK7 CyclinH (P50613 whole entry): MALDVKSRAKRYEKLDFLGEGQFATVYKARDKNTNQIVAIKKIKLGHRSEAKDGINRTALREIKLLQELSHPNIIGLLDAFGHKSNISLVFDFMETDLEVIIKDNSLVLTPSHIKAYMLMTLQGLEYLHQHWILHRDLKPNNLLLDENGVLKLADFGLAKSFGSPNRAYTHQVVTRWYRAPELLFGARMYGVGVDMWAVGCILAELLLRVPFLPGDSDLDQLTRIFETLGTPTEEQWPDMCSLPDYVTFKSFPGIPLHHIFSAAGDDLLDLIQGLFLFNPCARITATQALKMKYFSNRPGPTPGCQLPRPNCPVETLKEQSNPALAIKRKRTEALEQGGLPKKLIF
Sequence of CDK7 CyclinH (P51946 whole entry partner): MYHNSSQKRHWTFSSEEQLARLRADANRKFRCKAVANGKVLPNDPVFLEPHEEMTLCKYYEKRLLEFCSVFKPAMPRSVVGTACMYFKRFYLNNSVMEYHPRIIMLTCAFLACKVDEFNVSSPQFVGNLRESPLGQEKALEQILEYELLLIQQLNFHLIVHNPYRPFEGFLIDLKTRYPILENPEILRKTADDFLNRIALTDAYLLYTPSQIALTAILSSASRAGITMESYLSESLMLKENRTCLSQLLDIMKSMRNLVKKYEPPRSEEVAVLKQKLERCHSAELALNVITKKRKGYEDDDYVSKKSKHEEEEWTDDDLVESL
Sequence of CDK7 CyclinH (P51948 whole entry partner): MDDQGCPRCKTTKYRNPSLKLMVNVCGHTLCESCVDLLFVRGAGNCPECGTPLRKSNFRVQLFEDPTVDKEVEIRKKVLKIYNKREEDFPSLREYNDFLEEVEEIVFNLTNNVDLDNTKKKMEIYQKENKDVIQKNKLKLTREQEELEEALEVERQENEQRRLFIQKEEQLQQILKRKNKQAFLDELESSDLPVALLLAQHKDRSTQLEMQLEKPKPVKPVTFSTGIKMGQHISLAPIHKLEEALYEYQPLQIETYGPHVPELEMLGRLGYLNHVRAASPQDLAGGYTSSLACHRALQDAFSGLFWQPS
Procedure: as §1, §2

CDK9-CYCLINT1 = molecular target: T4, CDK9-CYCLINT1 (Homo sapiens, UniProt P50750);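 further: values are IC50 from a concentration-response series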
T4 construct: purchased Carna
T4 sequence (P50750 whole entry): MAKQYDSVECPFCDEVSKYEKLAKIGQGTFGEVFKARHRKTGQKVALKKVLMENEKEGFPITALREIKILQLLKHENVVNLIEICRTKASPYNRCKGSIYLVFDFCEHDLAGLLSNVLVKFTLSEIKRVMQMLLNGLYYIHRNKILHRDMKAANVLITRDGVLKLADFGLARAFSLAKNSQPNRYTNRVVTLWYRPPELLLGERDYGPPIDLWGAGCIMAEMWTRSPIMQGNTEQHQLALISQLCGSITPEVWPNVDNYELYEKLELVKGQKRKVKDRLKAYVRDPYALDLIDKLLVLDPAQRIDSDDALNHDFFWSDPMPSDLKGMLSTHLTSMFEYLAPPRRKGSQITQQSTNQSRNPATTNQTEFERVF
T4 sequence (O60563 whole entry partner): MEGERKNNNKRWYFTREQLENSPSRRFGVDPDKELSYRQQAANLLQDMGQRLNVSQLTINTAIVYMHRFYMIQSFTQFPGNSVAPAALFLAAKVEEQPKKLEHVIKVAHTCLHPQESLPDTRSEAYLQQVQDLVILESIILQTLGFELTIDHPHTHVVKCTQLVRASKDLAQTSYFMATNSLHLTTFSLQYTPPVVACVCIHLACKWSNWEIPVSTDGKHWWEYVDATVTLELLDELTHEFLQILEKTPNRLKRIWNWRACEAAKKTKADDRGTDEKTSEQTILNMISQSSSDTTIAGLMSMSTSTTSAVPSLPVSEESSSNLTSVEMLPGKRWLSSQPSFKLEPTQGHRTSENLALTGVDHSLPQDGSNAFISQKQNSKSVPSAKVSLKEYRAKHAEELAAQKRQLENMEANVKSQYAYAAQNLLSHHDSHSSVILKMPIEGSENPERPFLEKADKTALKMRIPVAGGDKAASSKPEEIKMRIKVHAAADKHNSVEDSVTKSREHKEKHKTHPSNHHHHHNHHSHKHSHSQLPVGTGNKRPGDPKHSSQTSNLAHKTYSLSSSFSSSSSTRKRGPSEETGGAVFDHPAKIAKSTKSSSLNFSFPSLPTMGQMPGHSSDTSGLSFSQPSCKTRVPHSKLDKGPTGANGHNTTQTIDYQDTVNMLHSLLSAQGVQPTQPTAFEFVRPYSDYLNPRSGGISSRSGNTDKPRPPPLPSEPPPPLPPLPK
Procedure: as §1, §2

[1] = Table 3a, read-out: CDK4 CyclinD1 IC50
[2] = Table 3b, read-out: CDK4 CyclinD1 IC50
[3] = Table 3a, read-out: CDK6 CyclinD3 IC50
[4] = Table 3b, read-out: CDK6 CyclinD3 IC50
[5] = Table 2, ATP 200 μM, read-out: CDK4 IC50
[6] = Table 2, ATP 300 μM, read-out: CDK6 IC50

`CN(C)C(=O)c1cc2cnc(Nc3ccc(C4=CCNCC4)cn3)nc2n1C12CC(C1)C2` [Compound A87, 7-(bicyclo[1.1.1]pentan-1-yl)-N,N-dimethyl-2-((1′,2′,3′,6′-tetrahydro-[3,4′-bipyridin]-6-yl)amino)-7H-pyrrolo[2,3-d]pyrimidine-6-carboxamide] gave an IC50 (CDK2-CYCLINA; Table 3a) of 50000 nM, an IC50 (CDK2-CYCLINA; Table 3b) of 50000 nM and an IC50 (CDK4-CYCLIND1; [1]) of 25.2 nM. It also gave an IC50 (CDK4-CYCLIND1; [2]) of 25.2 nM, an IC50 (CDK6-CYCLIND3; [3]) of 20 nM and an IC50 (CDK6-CYCLIND3; [4]) of 20 nM. The IC50 (CDK7 CyclinH; Table 3a) was > 100000 nM, the IC50 (CDK7 CyclinH; Table 3b) was > 100000 nM and the IC50 (CDK9-CYCLINT1; Table 3a) was 553 nM.
In the case of `CN(C)C(=O)c1cc2cnc(Nc3ccc(N4CCNCC4)cc3)nc2n1C12CC(C1)C2` [Compound A83, 7-(bicyclo[1.1.1]pentan-1-yl)-N,N-dimethyl-2-((4-(piperazin-1-yl)phenyl)amino)-7H-pyrrolo[2,3-d]pyrimidine-6-carboxamide], the IC50 (CDK2-CYCLINA; Table 3a) is reported as 289 nM, the IC50 (CDK2-CYCLINA; Table 3b) is reported as 289 nM and the IC50 (CDK4-CYCLIND1; [1]) is reported as 6.75 nM. For the same compound, the IC50 (CDK4-CYCLIND1; [2]) was 6.75 nM, the IC50 (CDK6-CYCLIND3; [3]) was 15 nM and the IC50 (CDK6-CYCLIND3; [4]) was 15 nM. For the same compound, the IC50 (CDK7 CyclinH; Table 3a) was 3410 nM, the IC50 (CDK7 CyclinH; Table 3b) was 3410 nM and the IC50 (CDK9-CYCLINT1; Table 3a) was 12.7 nM.
With `CN1CCN(c2ccc(Nc3ncc4cc(C(=O)N(C)C)n(C56CC(C5)C6)c4n3)cc2)CC1` [Compound A84, 7-(bicyclo[1.1.1]pentan-1-yl)-N,N-dimethyl-2-((4-(4-methylpiperazin-1-yl)phenyl)amino)-7H-pyrrolo[2,3-d]pyrimidine-6-carboxamide] the IC50 (CDK2-CYCLINA; Table 3a) was 185 nM, the IC50 (CDK2-CYCLINA; Table 3b) was 185 nM and the IC50 (CDK4-CYCLIND1; [1]) was 2.44 nM. It also gave an IC50 (CDK4-CYCLIND1; [2]) of 2.44 nM, an IC50 (CDK6-CYCLIND3; [3]) of 6.1 nM and an IC50 (CDK6-CYCLIND3; [4]) of 6.1 nM. The IC50 (CDK7 CyclinH; Table 3a) was 1430 nM, the IC50 (CDK7 CyclinH; Table 3b) was 1430 nM and the IC50 (CDK9-CYCLINT1; Table 3a) was 5.84 nM. For the same compound, the IC50 (CDK9-CYCLINT1; Table 3b) was 5.84 nM.
`CN(C)C(=O)c1cc2cnc(Nc3ccc(C4=CCNCC4)cn3)nc2n1C12CC(C1)C2` [Compound A13, 7-(bicyclo[1.1.1]pentan-1-yl)-N,N-dimethyl-2-((1′,2′,3′,6′-tetrahydro-[3,4′-bipyridin]-6-yl)amino)-7H-pyrrolo[2,3-d]pyrimidine-6-carboxamide] showed an IC50 (CDK4-CYCLIND1; [5]) of 14.7 nM and an IC50 (CDK6-CYCLIND3; [6]) of 8.29 nM.
`CN(C)C(=O)c1cc2cnc(Nc3ccc(N4CC5(CNC5)C4)nc3)nc2n1C12CC(C1)C2` [Compound A46, 2-((6-(2,6-diazaspiro[3.3]heptan-2-yl)pyridin-3-yl)amino)-7-(bicyclo[1.1.1]pentan-1-yl)-N,N-dimethyl-7H-pyrrolo[2,3-d]pyrimidine-6-carboxamide] was tested, and the IC50 (CDK4-CYCLIND1; [5]) was 12.6 nM and the IC50 (CDK6-CYCLIND3; [6]) was 28.2 nM.
For `CN(C)CCOc1ccc(Nc2ncc3c(F)c(C(=O)N(C)C)n(C4CCCC4)c3n2)nc1` [Compound A3, 7-cyclopentyl-2-((5-(2-(dimethylamino)ethoxy)pyridin-2-yl)amino)-5-fluoro-N,N-dimethyl-7H-pyrrolo[2,3-d]pyrimidine-6-carboxamide], the IC50 (CDK4-CYCLIND1; [5]) was 48 nM and the IC50 (CDK6-CYCLIND3; [6]) was 64.5 nM.
`CN(C)CCOc1ccc(Nc2ncc3cc(C(=O)N(C)C)n(C45CC(C4)C5)c3n2)nc1` [Compound A15, 7-(bicyclo[1.1.1]pentan-1-yl)-2-((5-(2-(dimethylamino)ethoxy)pyridin-2-yl)amino)-N,N-dimethyl-7H-pyrrolo[2,3-d]pyrimidine-6-carboxamide] was tested, and the IC50 (CDK4-CYCLIND1; [5]) was 31.5 nM and the IC50 (CDK6-CYCLIND3; [6]) was 23.8 nM.
In the case of `CN(C)C(=O)c1cc2cnc(Nc3ccc(OCCN4CCCCC4)cn3)nc2n1C1CCCC1` [Compound A6, 7-cyclopentyl-N,N-dimethyl-2-((5-(2-(piperidin-1-yl)ethoxy)pyridin-2-yl)amino)-7H-pyrrolo[2,3-d]pyrimidine-6-carboxamide], the IC50 (CDK4-CYCLIND1; [5]) is reported as 15.2 nM and the IC50 (CDK6-CYCLIND3; [6]) is reported as 36.4 nM.
For `Cc1cc(Nc2ncc3cc(C(=O)N(C)C)n(C45CC(C4)C5)c3n2)ccc1N1CCN(C(C)C)CC1` [Compound A31, 7-(bicyclo[1.1.1]pentan-1-yl)-2-((4-(4-isopropylpiperazin-1-yl)-3-methylphenyl)amino)-N,N-dimethyl-7H-pyrrolo[2,3-d]pyrimidine-6-carboxamide], the IC50 (CDK4-CYCLIND1; [5]) was 9 nM and the IC50 (CDK6-CYCLIND3; [6]) was 33.7 nM.
Compound `CN(C)C(=O)c1cc2cnc(Nc3ccc(N4CCN5CCC4CC5)cn3)nc2n1C1CCCC1` [Compound A9, 2-((5-(1,4-diazabicyclo[3.2.2]nonan-4-yl)pyridin-2-yl)amino)-7-cyclopentyl-N,N-dimethyl-7H-pyrrolo[2,3-d]pyrimidine-6-carboxamide] has an IC50 (CDK4-CYCLIND1; [5]) of 21 nM and an IC50 (CDK6-CYCLIND3; [6]) of 54.9 nM.
In the case of `CN(C)C(=O)c1cc2cnc(Nc3ccc(N4CCOCC4)c(F)c3)nc2n1C12CC(C1)C2` [Compound A42, 7-(bicyclo[1.1.1]pentan-1-yl)-2-((3-fluoro-4-morpholinophenyl)amino)-N,N-dimethyl-7H-pyrrolo[2,3-d]pyrimidine-6-carboxamide], the IC50 (CDK4-CYCLIND1; [5]) is reported as 15 nM and the IC50 (CDK6-CYCLIND3; [6]) is reported as 43.4 nM.
Work on `CN(C)CCOc1ccc(Nc2ncc3c(F)c(C(=O)N(C)C)n(C4CCCC4)c3n2)cc1` [Compound A7, 7-cyclopentyl-2-((4-(2-(dimethylamino)ethoxy)phenyl)amino)-5-fluoro-N,N-dimethyl-7H-pyrrolo[2,3-d]pyrimidine-6-carboxamide] yielded an IC50 (CDK4-CYCLIND1; [5]) of 22.2 nM and an IC50 (CDK6-CYCLIND3; [6]) of 63 nM.
`CN(C)C(=O)c1cc2cnc(Nc3ccc(N4CCN(C#N)CC4)cn3)nc2n1C1CCCC1` [Compound A23, 2-((5-(4-cyanopiperazin-1-yl)pyridin-2-yl)amino)-7-cyclopentyl-N,N-dimethyl-7H-pyrrolo[2,3-d]pyrimidine-6-carboxamide] was tested, and the IC50 (CDK4-CYCLIND1; [5]) was 34.3 nM and the IC50 (CDK6-CYCLIND3; [6]) was 97 nM.
With `CN(C)C(=O)c1cc2cnc(Nc3ccc(N4CC5(CNC5)C4)cc3)nc2n1C12CC(C1)C2` [Compound A48, 2-((4-(2,6-diazaspiro[3.3]heptan-2-yl)phenyl)amino)-7-(bicyclo[1.1.1]pentan-1-yl)-N,N-dimethyl-7H-pyrrolo[2,3-d]pyrimidine-6-carboxamide] the IC50 (CDK2-CYCLINA; Table 3a) was 666 nM, the IC50 (CDK2-CYCLINA; Table 3b) was 666 nM and the IC50 (CDK4-CYCLIND1; [1]) was 16.4 nM. For the same compound, the IC50 (CDK4-CYCLIND1; [2]) was 16.4 nM, the IC50 (CDK6-CYCLIND3; [3]) was 44 nM and the IC50 (CDK6-CYCLIND3; [4]) was 44 nM. The IC50 (CDK7 CyclinH; Table 3a) was 4860 nM, the IC50 (CDK7 CyclinH; Table 3b) was 4860 nM and the IC50 (CDK9-CYCLINT1; Table 3a) was 14.9 nM.
In the case of `CN(C)C(=O)c1cc2cnc(Nc3ccc(OCCN4CCCC4)c(F)c3)nc2n1C1CCCC1` [Compound A32, 7-cyclopentyl-2-((3-fluoro-4-(2-(pyrrolidin-1-yl)ethoxy)phenyl)amino)-N,N-dimethyl-7H-pyrrolo[2,3-d]pyrimidine-6-carboxamide], the IC50 (CDK4-CYCLIND1; [5]) is reported as 1.95 nM and the IC50 (CDK6-CYCLIND3; [6]) is reported as 10.1 nM.
For `CN(C)C(=O)c1c(F)c2cnc(Nc3ccc(OCCN4CCCC4)c(F)c3)nc2n1C1CCCC1` [Compound A33, 7-cyclopentyl-5-fluoro-2-((3-fluoro-4-(2-(pyrrolidin-1-yl)ethoxy)phenyl)amino)-N,N-dimethyl-7H-pyrrolo[2,3-d]pyrimidine-6-carboxamide], the IC50 (CDK4-CYCLIND1; [5]) was 10.1 nM and the IC50 (CDK6-CYCLIND3; [6]) was 37.4 nM.
In the case of `CN(C)C(=O)c1cc2cnc(Nc3ccc(OCCN4CCCC4)nc3)nc2n1C1CCCC1` [Compound A8, 7-cyclopentyl-N,N-dimethyl-2-((6-(2-(pyrrolidin-1-yl)ethoxy)pyridin-3-yl)amino)-7H-pyrrolo[2,3-d]pyrimidine-6-carboxamide], the IC50 (CDK4-CYCLIND1; [5]) is reported as 4.98 nM and the IC50 (CDK6-CYCLIND3; [6]) is reported as 23.6 nM.
`CN(C)CCOc1ccc(Nc2ncc3cc(C(=O)N(C)C)n(C4CCCC4)c3n2)nc1` [Compound A4, 7-cyclopentyl-2-((5-(2-(dimethylamino)ethoxy)pyridin-2-yl)amino)-N,N-dimethyl-7H-pyrrolo[2,3-d]pyrimidine-6-carboxamide] showed an IC50 (CDK4-CYCLIND1; [5]) of 18.9 nM and an IC50 (CDK6-CYCLIND3; [6]) of 34.9 nM.
For `CN(C)C(=O)c1cc2cnc(NC3CCN(S(C)(=O)=O)CC3)nc2n1C12CC(C1)C2` [Compound A75, 7-(bicyclo[1.1.1]pentan-1-yl)-N,N-dimethyl-2-((1-(methylsulfonyl)piperidin-4-yl)amino)-7H-pyrrolo[2,3-d]pyrimidine-6-carboxamide], the IC50 (CDK7 CyclinH; Table 3a) was 8130 nM, the IC50 (CDK7 CyclinH; Table 3b) was 8130 nM and the IC50 (CDK9-CYCLINT1; Table 3a) was 11.4 nM.
In the case of `CN(C)C(=O)c1cc2cnc(Nc3ccc(N4CCNCC4)c(F)c3)nc2n1C12CC(C1)C2` [Compound A17, 7-(bicyclo[1.1.1]pentan-1-yl)-2-((3-fluoro-4-(piperazin-1-yl)phenyl)amino)-N,N-dimethyl-7H-pyrrolo[2,3-d]pyrimidine-6-carboxamide], the IC50 (CDK4-CYCLIND1; [5]) is reported as 3.04 nM and the IC50 (CDK6-CYCLIND3; [6]) is reported as 8.04 nM.
`CN(C)C(=O)c1c(F)c2cnc(Nc3ccc(N4CCNCC4)cn3)nc2n1C1CCCC1` [Compound A1, 7-cyclopentyl-5-fluoro-N,N-dimethyl-2-((5-(piperazin-1-yl)pyridin-2-yl)amino)-7H-pyrrolo[2,3-d]pyrimidine-6-carboxamide] gave an IC50 (CDK4-CYCLIND1; [5]) of 38.7 nM and an IC50 (CDK6-CYCLIND3; [6]) of 54.3 nM.
Work on `CN(C)C(=O)c1cc2cnc(Nc3ccc(N4CC5(CNC5)C4)c(F)c3)nc2n1C12CC(C1)C2` [Compound A47, 7-(bicyclo[1.1.1]pentan-1-yl)-2-((3-fluoro-4-(2,6-diazaspiro[3.3]heptan-2-yl)phenyl)amino)-N,N-dimethyl-7H-pyrrolo[2,3-d]pyrimidine-6-carboxamide] yielded an IC50 (CDK4-CYCLIND1; [5]) of 5.22 nM and an IC50 (CDK6-CYCLIND3; [6]) of 16.5 nM.
Work on `Cc1cc(Nc2ncc3c(F)c(C(=O)N(C)C)n(C4CCCC4)c3n2)ccc1N1CCN(C(C)C)CC1` [Compound A34, 7-cyclopentyl-5-fluoro-2-((4-(4-isopropylpiperazin-1-yl)-3-methylphenyl)amino)-N,N-dimethyl-7H-pyrrolo[2,3-d]pyrimidine-6-carboxamide] yielded an IC50 (CDK4-CYCLIND1; [5]) of 26.2 nM and an IC50 (CDK6-CYCLIND3; [6]) of 103 nM.
`CN(C)C(=O)c1cc2cnc(Nc3ccc(N4CCNCC4)c(F)c3)nc2n1C12CC(C1)C2` [Compound A85, 7-(bicyclo[1.1.1]pentan-1-yl)-2-((3-fluoro-4-(piperazin-1-yl)phenyl)amino)-N,N-dimethyl-7H-pyrrolo[2,3-d]pyrimidine-6-carboxamide] gave an IC50 (CDK2-CYCLINA; Table 3a) of 162 nM, an IC50 (CDK2-CYCLINA; Table 3b) of 162 nM and an IC50 (CDK7 CyclinH; Table 3a) of 1140 nM. It also gave an IC50 (CDK7 CyclinH; Table 3b) of 1140 nM.
